Measurements as given in paper PMC11722135, “Structure- and Ligand-Based Virtual Screening for Identification of Novel TRPV4 Antagonists” (Molecules, 2024).
“Also recorded” adds a separate entry of the source.

Key:
human TRPV4 [1] = target: T1, human TRPV4 (Homo sapiens, UniProt Q9HBA0); assay: FLIPRtetra calcium assay, second addition (antagonism of 500 nM GSK1016790A); type: cell-based; details: for IC50: HEK-293 cells transiently transfected with human TRPV4, 500 nM GSK1016790A, 37 °C, read-out: IC50 (inhibition of response evoked by GSK1016790A); for Inhibitory effect / activity on hTRPV4 in vitro: natural stilbenoids, 0.05–37.5 µM concentration series
T1 construct: host or cells: HEK-293 cells (ATCC), transient transfection
T1 sequence (Q9HBA0 whole entry): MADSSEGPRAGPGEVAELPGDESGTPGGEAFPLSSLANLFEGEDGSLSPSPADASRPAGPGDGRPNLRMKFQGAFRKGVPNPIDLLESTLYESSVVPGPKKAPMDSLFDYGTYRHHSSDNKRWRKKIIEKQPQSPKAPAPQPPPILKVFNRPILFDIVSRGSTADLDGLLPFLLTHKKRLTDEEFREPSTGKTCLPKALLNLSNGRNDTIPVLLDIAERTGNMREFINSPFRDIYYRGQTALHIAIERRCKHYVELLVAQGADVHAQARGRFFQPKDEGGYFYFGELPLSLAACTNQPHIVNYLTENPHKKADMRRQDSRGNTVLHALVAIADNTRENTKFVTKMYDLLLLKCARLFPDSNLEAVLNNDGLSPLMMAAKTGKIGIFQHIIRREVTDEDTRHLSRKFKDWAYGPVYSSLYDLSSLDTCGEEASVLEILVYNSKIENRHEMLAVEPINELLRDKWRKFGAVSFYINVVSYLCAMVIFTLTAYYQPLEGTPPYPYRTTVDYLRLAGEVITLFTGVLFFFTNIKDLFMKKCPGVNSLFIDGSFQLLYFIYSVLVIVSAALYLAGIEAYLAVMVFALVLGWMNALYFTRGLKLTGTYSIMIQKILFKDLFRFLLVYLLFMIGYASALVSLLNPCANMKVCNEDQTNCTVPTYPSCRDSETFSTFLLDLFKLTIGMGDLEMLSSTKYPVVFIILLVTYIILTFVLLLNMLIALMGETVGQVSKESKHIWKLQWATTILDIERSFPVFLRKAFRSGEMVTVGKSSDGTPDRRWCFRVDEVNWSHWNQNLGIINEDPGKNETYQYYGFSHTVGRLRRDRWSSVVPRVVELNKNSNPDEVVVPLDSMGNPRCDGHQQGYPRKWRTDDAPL
Procedure: (§1) The TRPV4 pharmacology of the hit compounds (Enamine) and the natural stilbenoids (purity > 95%, extracted at the Laboratory of Organic Chemistry at Åbo Akademi University) was studied with the fluorometric imaging plate reader FLIPR^tetra (Molecular Devices, San Jose, CA, USA) using a dual addition protocol, in which a compound’s agonism is initially measured and then, subsequently, a reference agonist is added to assess the compound’s possible antagonism. The studies were conducted in a 96-well plate format using HEK-293 cells (ATCC) that were transiently transfected with the human TRPV4 plasmid (Origene, Rockville, MD, USA, cat. SC309684). HEK cells were used as they are easy to transfect, and TRPV4 overexpressing cells provide a robust system to study TRPV4-mediated calcium responses with a wide signal window. In the experiments, the cells were loaded with a Calcium 4 Assay reagent (Molecular Devices) to enable intracellular calcium measurements. The study protocol was initiated by dispensing a concentration series (0.05–37.5 µM) of the test compounds on cells by FLIPR^tetra, and the agonism was recorded for 10 min followed by the second addition, 500 nM of the known TRPV4 agonist GSK1016790A (Sigma-Aldrich, St. Louis, […], USA, cat. G0798). The antagonism of the test compounds was measured for 2 min. All the experiments were performed at 37 °C. The excitation and emission were measured at wavelengths of 470–495 nm and 515–575 nm, respectively.
(§2) In compound agonism and antagonism analysis, the fluorescence values were normalized by subtracting the baseline value from the maximum value of the first 10 min and of the last 2 min measured for each well, respectively. EC50 and IC50 values were determined from dose–response curves using a nonlinear regression curve fit by Prism (version 9.1.0). Dose–response curves were constructed from a mean of 3 separate wells at each compound concentration.

TRPV4 = tested on: TRPV4; design: method as in doi:10.1101/2020.10.13.334797; details: read-out: EC50 (TRPV4 agonist); cited from earlier work
human TRPV4 [2] = target: T1, human TRPV4; assay: FLIPRtetra calcium assay, first addition (agonism); type: cell-based
Procedure: as §1, §2

Structure (SMILES): O=C(CC(NC(=O)c1ccccc1Cl)c1ccccc1)Nc1ccc(N2CCCC2)nc1 (stereo not drawn) [Z221487176]
- IC50 (human TRPV4 [1]): > 30 µM

Structure (SMILES): CCCCCCCCCC(=O)O[C@@H]1[C@@H](C)[C@@]2(O)[C@@H](C=C(CO)C[C@@]3(O)C(=O)C(C)=C[C@@H]23)[C@@H]2C(C)(C)[C@]12OC(=O)CCCCCCCCC [4α-PDD, 4α-phorbol 12,13-didecanoate]
- EC50 (TRPV4): 0.2 µM

Structure (SMILES): OC[C@H]1O[C@@H](Oc2cc(O)cc(/C=C/c3ccc(O)c(O)c3)c2)[C@H](O)[C@@H](O)[C@@H]1O [Astringin, astringin]
- Inhibitory effect / activity on hTRPV4 in vitro (human TRPV4 [1]): inactive

Structure (SMILES): O=C(CC1C(=O)Nc2ccccc2N1C(=O)/C=C/c1ccccc1)Nc1ccc(F)cc1 (stereo not drawn) [Z1213735368]
- Inhibition of the response evoked by GSK1016790A (human TRPV4 [1]; 10 µM, 500 nM GSK1016790A): inhibited the response evoked by GSK1016790A; also recorded: inhibited the response induced by GSK1016790A
- Inhibitory effect on hTRPV4 / reversal of the effect of GSK1016790A (human TRPV4 [1]; 30 µM (high concentration), 500 nM GSK1016790A): reverse the effect of GSK1016790A
- IC50 (human TRPV4 [1]): 8 µM
- Agonistic activity on the channel (human TRPV4 [2]; 10 µM): without any agonistic activity
- Increase in the fluorescence signal / [Ca2+] (agonism) (human TRPV4 [2]; high concentration (30 µM)): evoked a slow increase in the fluorescence signal; also recorded: gradually raised [Ca^2+] levels

Structure (SMILES): CN1C(=O)c2ccc(NCc3nc(-c4c(F)cccc4F)cs3)cc2C1=O [Z1728742868]
- Inhibition of the effect of GSK1016790A (human TRPV4 [1]; 37.5 µM (highest test concentration), 500 nM GSK1016790A): inhibited the effect of GSK1016790A; also recorded: effectively inhibited the response
- EC50 (human TRPV4 [2]; HEK-293 cells transiently transfected with human TRPV4, 37 °C, read-out: EC50 (increase in intracellular calcium)): 14 µM

Structure (SMILES): CC(C)C[C@H](NC(=O)c1cc2ccccc2s1)C(=O)N1CCN(C(=O)[C@H](CO)NS(=O)(=O)c2ccc(Cl)cc2Cl)CC1 [GSK1016790A]
- EC50 (TRPV4): 0.002 µM

Structure (SMILES): COc1cc(/C=C/c2cc(O)cc(O[C@@H]3O[C@H](CO)[C@@H](O)[C@H](O)[C@H]3O)c2)ccc1O [Isorhapontin, isorhapontin]
- Inhibitory effect / activity on hTRPV4 in vitro (human TRPV4 [1]): inactive
